In US10722516B2, “Use of landiolol hydrochloride in the long-term treatment of tachyarrhythmias” (AOP Orphan Pharmaceuticals AG, priority 2013, dated 2020):
Entries after “also recorded” stand apart in the source; their conditions may differ. Where a name gives a salt, the structure may show the parent alone.

How the values were obtained:
healthy volunteers [1] = experiment: 24 h long-term infusion study, AOP LDLL600 against esmolol: heart rate; assay type: in vivo, human; conditions: for heart rate: Table 1
Procedure: (§1) A single centre prospective, randomized, double blind, crossover, pharmacokinetic, safety and tolerability study to compare long-term infusion administration of AOP LDLL600 against esmolol in healthy volunteers was performed.
(§2) Landiolol hydrochloride lyophilized (LDLL600) comprises 600 mg landiolol hydrochloride, 600 mg mannitol, pH 6.5. The primary packing of LDLL600 is 50 ml vial, the reconstitution volume is 50 ml and the final product concentration is 12 mg/mL landiolol HCl.
(§3) 12 subjects were administered AOP LDLL600 or Esmolol (Brevibloc, 2500 mg/250 ml) in 1:1 ratio in double-blind, randomized, cross-over setting. PK, systemic cardiovascular and local tolerability and safety of the 24 h-long term infusions of three dose levels of both IMPs during each treatment period were assessed.
(§4) Landiolol was infused over 24 h in a dose of 10 μg/KG/min (2 hrs), followed by 20 μg/KG/min (2 hrs), followed by 40 μg/KG/min for 20 hrs.
(§5) Dosing algorithm was body weight divided by 20, 10 and 5 in ml/h giving 10, 20 and 40 μg/KG/min at a concentration of 12 mg/ml. No severe adverse drug reactions, mild local reactions, 1 severe local reaction (Esmolol High Dose).
(§6) Landiolol was infused over 24 h in a dose of 10, 20 and 40 μg/KG/min, i.e. 10 μg/KG/min landiolol were administered for 2 hrs, followed by 2 hrs administration of 20 μg/KG/min and further followed by 20 hrs administration of 40 μg/KG/min.
Post-infusion follow up measurements were performed immediately after 20 hrs administration study, i.e. 2, 4 min etc. after stop of landiolol administration.

healthy volunteers [2] = experiment: 24 h long-term infusion study: local tolerability and safety; assay type: in vivo, human
Procedure: as §1, §2, §3, §4, §5, §6

[3] = LD infusion (landiolol 10, esmolol 50 μg/kg/min), 6 min
[4] = LD infusion (landiolol 10, esmolol 50 μg/kg/min), 8 min
[5] = LD infusion (landiolol 10, esmolol 50 μg/kg/min), 12 min
[6] = LD infusion (landiolol 10, esmolol 50 μg/kg/min), 16 min
[7] = LD infusion (landiolol 10, esmolol 50 μg/kg/min), 20 min
[8] = LD infusion (landiolol 10, esmolol 50 μg/kg/min), 30 min
[9] = LD infusion (landiolol 10, esmolol 50 μg/kg/min), 60 min
[10] = LD infusion (landiolol 10, esmolol 50 μg/kg/min), 90 min
[11] = LD infusion (landiolol 10, esmolol 50 μg/kg/min), 2 h
[12] = MD infusion (landiolol 20, esmolol 100 μg/kg/min, after 2 h LD), 2 min
[13] = MD infusion (landiolol 20, esmolol 100 μg/kg/min, after 2 h LD), 3 min
[14] = MD infusion (landiolol 20, esmolol 100 μg/kg/min, after 2 h LD), 4 min
[15] = MD infusion (landiolol 20, esmolol 100 μg/kg/min, after 2 h LD), 6 min
[16] = MD infusion (landiolol 20, esmolol 100 μg/kg/min, after 2 h LD), 8 min
[17] = MD infusion (landiolol 20, esmolol 100 μg/kg/min, after 2 h LD), 12 min
[18] = MD infusion (landiolol 20, esmolol 100 μg/kg/min, after 2 h LD), 16 min
[19] = MD infusion (landiolol 20, esmolol 100 μg/kg/min, after 2 h LD), 20 min
[20] = MD infusion (landiolol 20, esmolol 100 μg/kg/min, after 2 h LD), 30 min
[21] = MD infusion (landiolol 20, esmolol 100 μg/kg/min, after 2 h LD), 60 min
[22] = MD infusion (landiolol 20, esmolol 100 μg/kg/min, after 2 h LD), 90 min
[23] = MD infusion (landiolol 20, esmolol 100 μg/kg/min, after 2 h LD), 2 h
[24] = 24 h infusion, three dose levels

## CC1(C)OC[C@@H](COC(=O)CCc2ccc(OC[C@@H](O)CNCCNC(=O)N3CCOCC3)cc2)O1 [Landiolol, (−)-[(S)-2,2-dimethyl-1,3-dioxolan-4-yl]methyl 3-[4-[(S)-2-hydroxy-3-(2-morpholinocarbonylamino)ethylamino]propoxy]phenylpropionate monohydrochloride]
Healthy volunteers [1]; LD infusion (landiolol 10, esmolol 50 μg/kg/min), 4 min
  heart rate, Mean (SD): 64.6 (6.97) beats per minute
Healthy volunteers [1]; [3]
  change of heart rate from predose, Mean (SD): −1.7 (7.97) beats per minute
  heart rate, Mean (SD): 65.7 (8.78) beats per minute
Healthy volunteers [1]; [4]
  change of heart rate from predose, Mean (SD): −3.6 (9.07) beats per minute
  heart rate, Mean (SD): 63.8 (6.57) beats per minute
Healthy volunteers [1]; [5]
  change of heart rate from predose, Mean (SD): −4.7 (10.99) beats per minute
  heart rate, Mean (SD): 62.7 (7.71) beats per minute
Healthy volunteers [1]; [6]
  change of heart rate from predose, Mean (SD): −7.1 (5.32) beats per minute
  heart rate, Mean (SD): 60.3 (6.72) beats per minute
Healthy volunteers [1]; [7]
  change of heart rate from predose, Mean (SD): −7.3 (10.51) beats per minute
  heart rate, Mean (SD): 60.0 (6.05) beats per minute
Healthy volunteers [1]; [8]
  change of heart rate from predose, Mean (SD): −7.8 (12.55) beats per minute
  heart rate, Mean (SD): 59.5 (8.55) beats per minute
Healthy volunteers [1]; [9]
  change of heart rate from predose, Mean (SD): −9.6 (11.89) beats per minute
  heart rate, Mean (SD): 57.8 (8.05) beats per minute
Healthy volunteers [1]; [10]
  change of heart rate from predose, Mean (SD): −9.3 (11.33) beats per minute
  heart rate, Mean (SD): 58.1 (7.14) beats per minute
Healthy volunteers [1]; [11]
  change of heart rate from predose, Mean (SD): −11.2 (11.75) beats per minute
  heart rate, Mean (SD): 56.2 (5.89) beats per minute
Healthy volunteers [1]; MD Predose (end of 2 h LD)
  change of heart rate from predose, Mean (SD): −11.2 (11.75) beats per minute
  heart rate, Mean (SD): 56.2 (5.89) beats per minute
Healthy volunteers [1]; [12]
  change of heart rate from predose, Mean (SD): −11.1 (10.73) beats per minute
  heart rate, Mean (SD): 56.3 (6.48) beats per minute
Healthy volunteers [1]; [13]
  change of heart rate from predose, Mean (SD): −9.8 (7.90) beats per minute
  heart rate, Mean (SD): 57.6 (5.02) beats per minute
Healthy volunteers [1]; [14]
  change of heart rate from predose, Mean (SD): −10.9 (9.26) beats per minute
  heart rate, Mean (SD): 56.4 (6.87) beats per minute
Healthy volunteers [1]; [15]
  change of heart rate from predose, Mean (SD): −11.2 (11.10) beats per minute
  heart rate, Mean (SD): 56.2 (7.86) beats per minute
Healthy volunteers [1]; [16]
  change of heart rate from predose, Mean (SD): −9.7 (10.96) beats per minute
  heart rate, Mean (SD): 57.7 (7.24) beats per minute
Healthy volunteers [1]; [17]
  change of heart rate from predose, Mean (SD): −12.8 (10.17) beats per minute
  heart rate, Mean (SD): 54.5 (6.07) beats per minute
Healthy volunteers [1]; [18]
  change of heart rate from predose, Mean (SD): −10.4 (11.42) beats per minute
  heart rate, Mean (SD): 56.9 (6.88) beats per minute
Healthy volunteers [1]; [19]
  change of heart rate from predose, Mean (SD): −12.8 (10.52) beats per minute
  heart rate, Mean (SD): 54.5 (6.86) beats per minute
Healthy volunteers [1]; [20]
  change of heart rate from predose, Mean (SD): −9.0 (11.92) beats per minute
  heart rate, Mean (SD): 58.3 (8.53) beats per minute
Healthy volunteers [1]; [21]
  change of heart rate from predose, Mean (SD): −11.3 (9.86) beats per minute
  heart rate, Mean (SD): 56.0 (5.17) beats per minute
Healthy volunteers [1]; [22]
  change of heart rate from predose, Mean (SD): −10.2 (10.81) beats per minute
  heart rate, Mean (SD): 57.2 (6.79) beats per minute
Healthy volunteers [1]; [23]
  change of heart rate from predose, Mean (SD): −11.3 (9.41) beats per minute
  heart rate, Mean (SD): 56.1 (7.38) beats per minute
Healthy volunteers [1]; Predose (before first IMP administration)
  heart rate, Mean (SD): 67.3 (8.18) beats per minute
Healthy volunteers [1]; Control (before administration)
  heart rate: 67.8 beats per minute
Healthy volunteers [1]; high dose (landiolol 40, esmolol 200 μg/kg/min), time 720 min
  heart rate: 57.5 beats per minute
Healthy volunteers [1]; high dose (landiolol 40, esmolol 200 μg/kg/min), time 1200 min
  heart rate: 53.6 beats per minute
Healthy volunteers [1]; low dose (landiolol 10, esmolol 50 μg/kg/min), time 12 min
  heart rate: 62.7 beats per minute
Healthy volunteers [1]; low dose (landiolol 10, esmolol 50 μg/kg/min), time 16 min
  heart rate: 60.3 beats per minute
Healthy volunteers [1]; low dose (landiolol 10, esmolol 50 μg/kg/min), time 30 min
  heart rate: 59.5 beats per minute
Healthy volunteers [1]; low dose (landiolol 10, esmolol 50 μg/kg/min), time 60 min
  heart rate: 57.8 beats per minute
Healthy volunteers [1]; low dose (landiolol 10, esmolol 50 μg/kg/min), time 120 min
  heart rate: 56.2 beats per minute
Healthy volunteers [1]; medium dose (landiolol 20, esmolol 100 μg/kg/min), time 240 min
  heart rate: 56.1 beats per minute
Healthy volunteers [1]; time after administration 12 min (end at 1440 min)
  heart rate: 63.5 beats per minute
Healthy volunteers [1]; time after administration 16 min
  heart rate: 67 beats per minute
Healthy volunteers [1]; time after administration 30 min
  heart rate: 70 beats per minute
Healthy volunteers [1]; time after administration 60 min
  heart rate: 69.2 beats per minute
Healthy volunteers [1]; time after administration 120 min
  heart rate: 66.8 beats per minute
Healthy volunteers [1]; after termination of long term administration, listed as landiolol-hydrochloride, monohydrochloride
  overshoot effect on heart rate: avoiding any overshoot effect; also recorded: no significant overshoot effect occurs
Healthy volunteers [1]; long term administration
  tolerance effect: without showing any tolerance effects
Healthy volunteers [1]; long term administration, listed as landiolol-hydrochloride, monohydrochloride
  heart rate effect during administration: persistent reduction of heart rate; also recorded: significantly lower than the heart rate and/or blood pressure values achieved under esmolol long-term treatment
Healthy volunteers [2]; 24 h infusion
  local tolerability compared to Esmolol: clearly better
Healthy volunteers [2]; [24]
  local reactions (percent of subjects): 16.7%
  local reactions (subjects/total): 2/12
Healthy volunteers [2]; long term treatment
  local venous skin irritations or inflammatory reactions at the site of injection: did not bring about any blushing, erythema, pain, inflammation, induration, phlebitis and thrombosis
